Results reported in PubChem BioAssay (NCI).
Values joined by “and” are separate entries in the source; they are usually repeats but may differ in a detail not shown here. Equal values may be shown once.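 These data come from cells grown in 96-well plates and exposed to compound for 48 hours at five concentrations. GI50 = concentration required for 50% inhibition of growth. TGI marks complete inhibition of growth.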

How the values were obtained:
Assay in all cases: inhibition of tumour cell growth, NCI panel, 48 h
[1] = system: HL-60(TB) leukemia
[2] = system: TK-10 renal
[3] = system: NCI-H226 lung
[4] = system: UO-31 renal
[5] = system: 786-0 renal
[6] = system: NCI-H23 lung
[7] = system: OVCAR-8 ovarian
[8] = system: HCC-2998 colon
[9] = system: NCI-H460 lung
[10] = system: U251 CNS

| SMILES | TGI [1] | TGI [2] | TGI [3] | TGI [4] | TGI [5] | TGI [6] | TGI [7] | TGI [8] | TGI [9] | TGI [10] | GI50 [1] | GI50 [5] | GI50 [9] | GI50 [10] | GI50 [2] | GI50 [3] | GI50 [4] | GI50 [6] | GI50 [7] | GI50 [8] [µM] |
| --- | --- | --- | --- | --- | --- | --- | --- | --- | --- | --- | --- | --- | --- | --- | --- | --- | --- | --- | --- | --- |
| CC1(C)OC2COC3(CNO)OC(C)(C)OC3C2O1 (stereo not given) | 30.2 µM | > 100 µM | > 100 µM | > 100 µM | > 100 µM | > 100 µM | > 100 µM | > 100 µM | > 100 µM | > 100 µM |  |  |  |  |  |  |  |  |  |  |
| Cc1nnc(N/N=C(/C(=O)C(C#N)c2ccccc2)C(C#N)c2ccccc2)n1N (stereo not given) | 57.8 µM | > 100 µM | > 61.7 µM | > 56.5 µM | 25 µM | 17.8 µM | 15.2 µM | 11 µM | 12.6 µM | > 83.1 µM |  |  |  |  |  |  |  |  |  |  |
| COc1ccccc1-c1cc(=O)c2ccc(C)nc2[nH]1 | > 100 µM | > 100 µM | > 100 µM | > 100 µM | > 100 µM | > 100 µM | > 100 µM | > 100 µM | > 100 µM | > 100 µM | 73.8 µM | > 100 µM | 98.7 µM | > 100 µM |  |  |  |  |  |  |
| CCOC1Oc2ccccc2-c2oc(=O)c(Sc3ccc(C)cc3)cc21 (stereo not given) | 60.5 µM | > 100 µM | > 100 µM | > 100 µM | > 100 µM | > 100 µM | > 100 µM | > 100 µM | > 100 µM | > 100 µM | 8.98 µM | 36.3 µM | 20 µM | 25.1 µM | 30.8 µM | 36.8 µM | 16.4 µM | 40.4 µM | 51 µM | 52.2 |
| CC1(c2ccccc2)CC(c2ccccc2)=NO1 (stereo not given) | > 100 µM | > 100 µM | > 100 µM | > 100 µM | > 100 µM | > 100 µM | > 100 µM | > 100 µM | > 100 µM | > 100 µM |  |  |  |  |  |  |  |  |  |  |
| OB1OCc2cc(/C=C/c3cccc(C(F)(F)F)c3)ccc21 | 5.38 µM | 34.1 µM | 56.4 µM | 20.3 µM | 10.1 µM | 80.6 µM | 24.2 µM | > 100 µM | 22.8 µM | 17.3 µM | 0.298 µM | 0.365 µM | 0.48 µM | 0.64 µM | 2.46 µM | 2.52 µM | 0.551 µM | 0.625 µM | 0.918 µM | 2.54 |
| CC(C)c1ccccc1NC(=O)/C(Cl)=C1/Sc2ccccc2NC1=O | 52.6 µM | > 100 µM | > 100 µM | > 100 µM | > 100 µM | 70.8 µM | > 100 µM | 93.3 µM | > 100 µM | > 100 µM |  |  |  |  |  |  |  |  |  |  |
| O=C/C(=C(/Cl)c1ccc(O)cc1)c1ccccc1 | > 100 µM | > 56 µM | > 100 µM | 61.8 µM | > 66.3 µM | 55.1 µM | > 92.4 µM | > 100 µM | > 100 µM | > 56.5 µM |  |  |  |  |  |  |  |  |  |  |
| Cc1ncc(C(=O)Nc2ccc(CN3CCN(C)CC3)c(C(F)(F)F)c2)cc1C#Cc1cnc(NC2CC2)c2ncccc12 | 1.47 µM | 1.31 µM | 6.46 µM | 1.19 µM | 1.16 µM | 1.36 µM | 1.54 µM | 2.88 µM | 1.19 µM | 1.11 µM | 0.67 µM | 0.65 µM | 0.623 µM | 0.581 µM | 0.78 µM | 2.1 µM | 0.675 µM | 0.646 µM | 0.708 µM | 1.27 |
| Cn1c(/C(C#N)=C/c2ccc3ccccc3c2)cc2ccccc21 | 0.699 µM | > 100 µM | > 100 µM | > 100 µM | > 100 µM | > 100 µM | > 100 µM | > 100 µM | > 100 µM | > 100 µM | 0.21 µM | 0.424 µM | 0.201 µM | 0.249 µM | > 100 µM | 0.662 µM | 0.157 µM | 0.392 µM | 0.421 µM | 0.324 |
| CCN(CC)CCNC(=O)c1c(C)[nH]c(/C=C2\C(=O)Nc3ccc(F)cc32)c1C | 4.34 µM and 6.34 µM and 4.13 µM | > 10 µM and 5.81 µM and 20.9 µM | > 10 µM and 20 µM and 23.4 µM | > 10 µM and 4.59 µM and 8.07 µM | > 10 µM and 6.16 µM and 7.76 µM | > 10 µM and 9.21 µM and 14.5 µM | > 10 µM and 6.95 µM and 23.1 µM | > 10 µM and 7.03 µM and 3.06 µM | > 10 µM and 5.78 µM and 13.1 µM | > 10 µM and 6.34 µM and 7.54 µM | 0.353 µM and 2.42 µM and 0.847 µM | 4.13 µM and 3.07 µM and 2.3 µM | 2 µM and 2.19 µM | 5.33 µM and 3.06 µM and 2.25 µM | 2.78 µM and 2.01 µM and 5.52 µM | 5.22 µM and 5.72 µM and 8.46 µM | 0.629 µM and 1.26 µM and 1.29 µM | 3.88 µM and 2.6 µM and 2.39 µM | 9.05 µM and 2.81 µM and 6.09 µM |  |
| CCCCCCCCCCCC[n+]1ccccc1 (tested in a mixture with another compound) | 1.04 µM | 1.86 µM | 10.4 µM | 14.8 µM | 5.92 µM | 5.48 µM | 11.3 µM | 2.12 µM | 3.9 µM | 2.2 µM | 0.253 µM | 1.95 µM | 1.33 µM | 0.443 µM | 0.427 µM | 1.72 µM | 2.24 µM | 0.655 µM | 0.777 µM | 0.646 |
| C=C1CC2(OC1=O)C(=O)N(CCCN1C(=O)C3(CC(=C)C(=O)O3)c3ccccc31)c1ccccc12 (stereo not given) | 2.85 µM | 2.98 µM | 6.64 µM | 2.97 µM | 3.9 µM | 6.14 µM | 5.49 µM | 4.53 µM | 18.5 µM | 18.7 µM | 0.831 µM | 1.68 µM | 3.94 µM | 5.45 µM | 1.54 µM | 2.01 µM | 1.53 µM | 2.34 µM | 1.35 µM | 2.14 |
| O=S(=O)(CCOCc1ccc(-c2ccc3ncnc(Nc4ccc(OCc5cccc(F)c5)c(Cl)c4)c3c2)o1)c1ccccc1 | > 25 µM | > 25 µM | > 25 µM | > 25 µM | > 25 µM | > 25 µM | > 25 µM | > 25 µM | > 25 µM | > 25 µM | > 25 µM | > 25 µM | > 25 µM | > 25 µM | 1.17 µM | > 25 µM | > 7.54 µM | > 25 µM | > 25 µM | > 25 |
| CC1(C)N=C(N)N=C(N)N1c1ccc(OCC(=O)Nc2ccccc2)c(Cl)c1 | > 100 µM | > 100 µM | > 100 µM | > 100 µM | > 100 µM | > 100 µM | > 100 µM | > 100 µM | > 100 µM | > 100 µM | 0.922 µM | 11.1 µM | 0.0748 µM | 0.674 µM | 32.4 µM | > 71.6 µM | > 100 µM | 2.96 µM | 6.69 µM | 4.99 |
| Cc1ccc2nc3c(Cl)c(C)c(=O)cc-3sc2c1 | > 100 µM | > 100 µM | > 100 µM | > 100 µM | > 100 µM | > 100 µM | > 100 µM | > 100 µM | > 100 µM | > 100 µM |  | 96.3 µM | 50.3 µM | 45.1 µM | > 100 µM | 60 µM |  | 23.7 µM |  | > 100 |
